Experimental findings from patent US5086074A, “1-aminomethyl-1,2,3,4-tetrahydronaphthalenes” (Abbott Laboratories, priority 1990, dated 1992) are described below.

Counter-ions that a name gives are not always drawn.

The assay has as its target T1, alpha-1-receptor (Rattus norvegicus, UniProt P15823).
T1 construct: rat liver homogenates; from tissue; host or cells: rat liver homogenate
T1 sequence (P15823 1-515): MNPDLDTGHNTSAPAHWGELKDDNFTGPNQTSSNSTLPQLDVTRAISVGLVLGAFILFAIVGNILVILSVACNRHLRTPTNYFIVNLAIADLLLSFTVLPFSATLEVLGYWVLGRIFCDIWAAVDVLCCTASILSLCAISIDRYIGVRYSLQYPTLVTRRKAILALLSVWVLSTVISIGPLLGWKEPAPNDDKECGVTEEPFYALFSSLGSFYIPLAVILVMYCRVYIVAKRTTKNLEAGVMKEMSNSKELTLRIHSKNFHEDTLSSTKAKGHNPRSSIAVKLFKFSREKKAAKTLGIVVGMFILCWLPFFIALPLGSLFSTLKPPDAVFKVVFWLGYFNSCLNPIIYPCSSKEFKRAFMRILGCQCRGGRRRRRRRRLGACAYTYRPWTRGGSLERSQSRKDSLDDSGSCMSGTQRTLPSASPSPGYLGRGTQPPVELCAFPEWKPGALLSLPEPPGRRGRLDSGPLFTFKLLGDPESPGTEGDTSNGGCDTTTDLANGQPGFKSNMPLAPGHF
The experiment in a line: Radioligand binding, alpha-1 adrenoceptor, rat liver homogenates, [3H]-prazosin. Conditions: rat liver homogenates, [3H]-prazosin; read-out: Ki alpha-1. As for the experimental part:
The compounds were assessed for alpha-adrenergic receptor subtype selectivity by use of radioligand binding techniques as described previously (DeBernardis et.al. J. Med. Chem. 28, 1398 (1985)).
One may read the Ki as a dissociation constant, usually derived from enzyme kinetics or from competition with a known ligand. `CCN(CCc1cccs1)CC1CCCc2c1ccc1c2OCO1` (stereo not shown) [Example 164, 1-(N Ethylamino)methyl-N-(2-(2-thienyl)ethyl))-5,6-methylenedioxy tetralin hydrochloride]: the inhibitory constant (Ki) was 954 nM. Regarding `COc1ccc2c(c1)CCCC2CN(C)CCc1cccc(N)c1` (stereo not shown) [Example 67, 1-((N-Methylamino)methyl-N-(2-(m-aminophenyl)ethyl))-6-methoxy tetralin dihydrochloride], the inhibitory constant (Ki) turned out to be 1170 nM.

Take `COc1ccc2c(c1)C(CN(C)CCc1cccs1)CCC2` (stereo not shown) [Example 27, 1-((N-Methylamino)methyl-N (2-(2-thienyl)ethyl))7-methoxy tetralin hydrochloride]: the inhibition constant Ki is 525 nM. Regarding `CCN(CCc1ccsc1)CC1CCCc2cc(OC)ccc21` (stereo not shown) [Example 44, 1-((N-Ethylamino)methyl-N-(2-(3-thienyl)ethyl))-6-methoxy tetralin hydrochloride], the inhibition constant Ki was 590 nM. Take `COc1ccc2c(c1OC)CCCC2CN(C)CCc1cccs1` (stereo not shown) [Example 86, 1-((N-Methylamino)methyl-N-(2-(2-thienyl)ethyl))-5,6-dimethoxy tetralin hydrochloride]: the inhibition constant Ki came to 495 nM.

Turning to `COc1ccc2c(c1)CCCC2CN(C)CCC1CCCC1` (stereo not shown) [Example 6f, 1-((N methylamino)methyl -N-(2-(cyclopentyl)ethyl))-6-methoxy tetralin hydrochloride], the Ki came out at 2160 nM.

Consider `COc1cc2c(cc1F)C(CN(C)CCc1ccco1)CCC2` (stereo not shown) [Example 141, 1-((N-methylamino)methyl-N-(2-(2-furyl)ethyl))-6-methoxy-7-fluoro tetralin methanesulfonate], for which the inhibitory constant (Ki) is 880 nM. As to `COc1ccc2c(c1)CCCC2CN(C)CCc1cccc(F)c1` (stereo not shown) [Example 6b, 1-((N-methylamino)methyl-N-(2-(m-fluorophenyl)ethyl))-6-methoxy tetralin hydrochloride], the Ki is 1180 nM. As to `CCN(CCc1ccco1)CC1CCCc2cc(OC)ccc21` (stereo not shown) [Example 43, 1-((N-Ethylamino)methyl-N-(2-(2-furyl)ethyl))-6-methoxy tetralin hydrochloride], the inhibition constant Ki is 1400 nM. Take `CN(CCc1cccc(F)c1)CC1CCCc2ccccc21` (stereo not shown) [Example 70, 1-((N Methylamino)methyl-N-(2-(mfluorophenyl)ethyl))-tetralin hydrochloride]: the inhibitory constant (Ki) came to 525 nM.

For `Cc1cc(O)c(O)c2c1C(CN(C)CCc1cccc(F)c1)CCC2` (stereo not shown) [Example 34, 1-((N-Methylamino)methyl-N (2-(m-fluorophenyl)ethyl))-5,6-dihydroxy-8-methyl tetralin hydrobromide], the Ki is 330 nM.

For `CN(CCc1cccs1)CC1CCCc2c1ccc1c2OCCO1` (stereo not shown) [Example 30, 1-((N Methylamino)methyl-N-(2-(2-thienyl)ethyl))-5,6-ethylenedioxy tetralin hydrochloride], the inhibitory constant (Ki) worked out at 470 nM. As to `CN(CCc1ccccc1)CC1CCCc2ccccc21` (stereo not shown) [Example 88, 1-((N-Methylamino)methyl-N-(2-phenethyl))-tetralin hydrochloride], the inhibition constant (Ki) turned out to be 315 nM.

Consider `CN(CCc1cccs1)CC1CCCc2cc(O)ccc21` (stereo not shown) [Example 7, 1-((N-Methylamino)methyl N-(2-(2-thienyl)ethyl)) 6-hydroxy tetralin hydrochloride], for which the Ki amounted to 565 nM. For the molecule `COc1cc2c(c(OC)c1)C(CN(C)CCc1cccs1)CCC2` (stereo not shown) [Example 26, 1-((N Methylamino)methyl-N-(2-(2-thienyl)ethyl))6,8-dimethoxy tetralin hydrochloride], the inhibitory constant (Ki) stood at 175 nM.

With `CCCN(CCc1cccs1)CC1CCCc2cc(OC)ccc21` (stereo not shown) [Example 58, 1-((N-Propylamino)methyl)-N-(2-(2-thienyl)ethyl))-6-methoxy tetralin hydrochloride], the Ki amounted to 1830 nM. As for `COc1ccc2c(c1)CCCC2CN(C)CCc1ccsc1` (stereo not shown) [Example 6d, 1-((N-methylamino)methyl-N-(2-(3-thienyl)ethyl))-6-methoxy tetralin hydrochloride], the inhibitory constant (Ki) turned out to be 500 nM.

On to `CCN(CCc1cccs1)CC1CCCc2cc(OC)ccc21` (stereo not shown) [Example 41, 1-((N Ethylamino)methyl-N (2-(2-thienyl)ethyl))-6methoxy tetralin hydrochloride], for which the inhibitory constant (Ki) came out at 950 nM. For `Fc1ccccc1C1CCN(CC2CCCc3c2ccc2c3OCO2)C1` (stereo not shown) [Example 176a, 5,6-Methylenedioxy-1-(3-(o-fluorophenyl)pyrrolidino-1-methyl) tetralin methanesulfonate], the Ki was determined as 79 nM. As for `CN(CCc1cccc(N)c1)CC1CCCc2cc(O)ccc21` (stereo not shown) [Example 68, 1-((N-Methylamino)methyl N-(2-(m-aminophenyl)ethyl))-6-hydroxy tetralin dihydrobromide], the figure is 1170 nM; as for `c1csc(C2CCN(CC3CCCc4c3ccc3c4OCO3)C2)c1` (stereo not shown) [Example 144, 5,6-Methylenedioxy-1-(3-(2-thienyl)pyrrolidino-1-methyl) tetralin methanesulfonate], 245 nM; as for `CCN(CCc1cccc(F)c1)CC1CCCc2cc(OC)ccc21` (stereo not shown) [Example 42, 1-((N Ethylamino)methyl-N-(2-(m-fluorophenyl)ethyl))-6-methoxy tetralin hydrochloride], 1050 nM. On to `CN(CCc1cccc(F)c1)CC1CCCc2c1ccc(O)c2O` (stereo not shown) [Example 85, 1-((N-Methylamino)methyl-N-(2-(m-fluorophenyl)ethyl))-5,6-dihydroxy tetralin hydrochloride], for which the Ki was 260 nM. On to `CN(CCc1cccs1)CC1CCCc2c1ccc(O)c2O` (stereo not shown) [Example 87, 1-((N-Methylamino)methyl-N-(2-(2-thienyl)ethyl))-5,6-dihydroxy tetralin hydrochloride], for which the Ki stood at 444 nM. Take `CN(CCc1ccccc1)CC1CCCc2cc(N)ccc21` (stereo not shown) [Example 114, 1-((N-Methylaminomethyl-N-(2-phenylethyl))-6-aminotetralindihydrochloride]: the Ki stood at 725 nM. For `COc1ccc2c(c1)CCCC2CN(C)CCc1cccc(O)c1` (stereo not shown) [Example 83, 1-((N-Methylamino)methyl-N-(2-(m-hydroxyphenyl)ethyl))-6-methoxy tetralin hydrochloride], the Ki was 955 nM. As for `CN(CCc1cccc(F)c1)CC1CCCc2c1ccc1c2OCO1` (stereo not shown) [Example 166, 1-((N-Methylamino)methyl-N (2-m-fluorophenethyl))-5,6-methylenedioxy tetralin methanesulfonate], the figure is 603 nM; as for `CCN(CCc1cccc(F)c1)CC1CCCc2c1ccc1c2OCO1` (stereo not shown) [Example 165, 1-((N-Ethylamino)methyl-N-(2-m-fluorophenethyl))-5,6-methylenedioxy tetralin hydrochloride], 462 nM; as for `CN(CCc1cccc(O)c1)CC1CCCc2cc(O)ccc21` (stereo not shown) [Example 82, 1-((N-Methylamino)methyl-N-(2-(m-hydroxyphenyl)ethyl))-6-hydroxy tetralin hydrochloride], 495 nM. Take `COc1ccc2c(c1)CCCC2CN(C)CCc1cccn1C` (stereo not shown) [Example 12, 1-((N-Methylamino)methyl-N-(2-(N-methyl-2-pyrrolyl)ethyl))-6-methoxy tetralin fumarate]: the Ki was determined as 1210 nM. Regarding `COc1ccc2c(c1)CCCC2CN(C)CCc1cccs1` (stereo not shown) [Example 5, ((N-Methylamino)methyl-N-(2-(2-thienyl)ethyl)) 6-methoxy tetralin methanesulfonate], the Ki was found to be 580 nM.
